Assay results reported in patent US7745493B2, “Methods of treating tardive dyskinesia and other movement disorders” (priority 1998, dated 2010).

Columns and labels:
[1] = system: person two with long-standing TD; assay: Case Report 1: clinical observation of TD with blepharospasm; format: in vivo, human; settings: Case 1; for effect on involuntary movements of TD: clinical observation, acamprosate 333 mg four times a day
Procedure: Palliative treatment with alprazolam (an anxiolytic and GABA agonist via modulation; dosage 0.25 mg four times a day) and trihexyphenidyl (an anticholinergic antiparkinson drug that inhibits dopamine re-uptake at synapses; dosage 2 mg twice a day) was prescribed by another physician.
Initially, their other medications were maintained unchanged.
Nimodipine was discontinued, and the patient was begun on memantine at a dosage of 10 mg twice a day.
For the following 10 days they added 250 mg three times a day of chelated magnesium.

[2] = system: patients with Meige syndrome; settings: cited from earlier work
[3] = system: patients with tic-related symptoms; settings: in vivo; cited from earlier work
[4] = system: person two with Parkinson's disease and peak-dose dyskinesia; assay: Case Report 3: peak-dose dyskinesia of treated Parkinson's disease; format: in vivo, human; settings: Case 3; for effect on peak-dose dyskinesia: added to antiparkinson regime, memantine 10 mg three times a day, acamprosate 666 mg three times, then 333 mg four times a day, baclofen 30 and 60 mg daily, magnesium 300 mg three times a day
Procedure: The patient's Parkinson's disease was treated using levodopa/carbidopa and bromocriptine.
Prior to beginning treatment with acamprosate, the patient was on an antiparkinson treatment regime that consisted of 1 mg of pergolide three times a day, 5 mg of selegiline twice a day, and a combination of levodopa/carbidopa consisting of 550-600 mg of levodopa and 125-150 mg of carbidopa administered in divided doses.
The patient began acamprosate as an addition to the antiparkinson regime described above. Initially, the patient received 666 mg of acamprosate administered three times a day. Two weeks later the regime was adjusted such that the patient received 333 mg of acamprosate four times a day, taking one 333 mg pill with each daytime dose of 100 mg levodopa and 25 mg carbidopa. The patient's bedtime does of controlled-release levodopa-carbidopa (200 mg of levodopa and 50 mg of carbidopa) was continued, but were given without acamprosate. […] To confirm that the patient's improvement was due to the administration of acamprosate, the patient was taken off the acamprosate. […] During the period off acamprosate, an attempt was made to replace acamprosate with baclofen (a GABA-receptor agonist) at a total daily dose of 30 mg, and then with baclofen at a total daily dose of 60 mg.
Several months later, magnesium (300 mg elemental magnesium, as a mixed chelate), was added to the regimen. It was taken three times a day, together with a one of the patient's regular doses of levodopa/carbidopa. […] To establish whether the improvement was due to magnesium, the magnesium was stopped after several weeks.

[5] = system: person one with long-standing TD; assay: Case Report 2: clinical observation of TD; format: in vivo, human; settings: Case 2; acamprosate 666 mg three times daily added to memantine; magnesium oxide 250 mg three times a day added to acamprosate
Description: person one had long-standing TD following decades of treatment with the neuroleptic drug perphenazine. Their involuntary movements comprised bilateral chorea of the upper extremities, plus writhing of the tongue and tongue-biting. Both of the latter movements led to a very sore tongue. In addition, the patient experienced impairment of their short-term memory, which was attributed primarily to cerebrovascular disease.
They also continued to have a sore tongue. […] In addition to memantine, the patient regularly took antiepileptic drugs (gabapentin and lamotrigine), antiplatelet agents (aspirin and ticlopidine), as well as medications for hypertension, glaucoma and gastrointestinal symptoms (isosorbide mononitrate, metoprolol, timolol eye drops and olsalazine).
The patient was placed on a treatment regime that included administration of 666 mg of acamprosate, three times daily. In this case, acamprosate was added to the patient's regimen, which continued to include memantine. […] Despite past evidence from formal testing that the patient had impaired short-term memory, they performed normally on a two-sentence memory task, which involved testing the patient's recall ability using two sentences containing 13 separate details. On the two-sentence memory task, within three attempts the patient was able to recall 9 details and, using a multiple choice format, was able to recall a total of 11 details. Recall of 9 details on the third attempt would be normal for a middle-aged adult, let alone one […].
After a full year on memantine and acamprosate, the memantine was discontinued, with little change in the patient's symptoms.
Magnesium oxide, 250 mg three times a day, was added, each dose being taken together with the acamprosate. […] The effect was definite: movements worsened when magnesium oxide was stopped and improved when it was restarted. After a month on magnesium, the dosage of acamprosate was increased to 666 mg four times a day, with 250 mg of magnesium oxide given together with each dose. […] The only residual sign of TD was a mild degree of involuntary movement of the hands.

Row | Compound | effect on involuntary movements of TD ([1]; memantine 10 mg twice a day) | effect on peak-dose dyskinesia [4] | other results
1 | Cc1nnc2n1-c1ccc(Cl)cc1C(c1ccccc1)=NC2 [alprazolam] | no detectable effect | – | –
2 | COc1cc2c(cc1OC)C1CC(=O)C(CC(C)C)CN1CC2 (stereo not shown) [Tetrabenazine] | – | – | patients with involuntary movements alleviated [2]: 4 of 6; undesirable side effects [2]: drowsiness, drooling and Parkinsonism
3 | O=C1CC2(CCCC2)CC(=O)N1CCCCN1CCN(c2ncccn2)CC1 [buspirone] | either produced little benefit or were not tolerated | – | –
4 | Clc1cccc(Cl)c1N=C1NCCN1 [clonidine] | – | – | patients showing clinically significant improvement of tic-related symptoms [3]: < 50%; side effects that limit use [3]: hypotension or sedation
5 | OC(CCN1CCCCC1)(c1ccccc1)C1CCCCC1 (stereo not shown) [Trihexyphenidyl, trihexyphenidyl] | discontinued without a change in their involuntary movements | – | –
6 | NCC(CC(=O)O)c1ccc(Cl)cc1 (stereo not shown) [baclofen] | – | no beneficial effect | adverse effects ([4]; total daily dose 30 mg, then 60 mg): sedation and nausea
7 | CC(C[N+](C)(C)C)OC(N)=O (stereo not shown) [bethanecol] | – | did not appear to affect | –
8 | [O]=[Mg] [Magnesium oxide] | – | – | effect on involuntary movements of TD [5]: improved further
9 | NC(=O)N1c2ccccc2C=Cc2ccccc21 [carbamazepine] | – | did not appear to affect | –
10 | vitamin E | either produced little benefit or were not tolerated | – | –
11 | CN[C@H]1CC[C@@H](c2ccc(Cl)c(Cl)c2)c2ccccc21 [sertraline] | either produced little benefit or were not tolerated | did not appear to affect | –
12 | medroxyprogesterone | – | did not appear to affect | –
13 | COCCOC(=O)C1=C(C)NC(C)=C(C(=O)OC(C)C)C1c1cccc([N+](=O)[O-])c1 (stereo not shown) [nimodipine] | – | – | reduction of involuntary movements ([1]; 30 mg four times a day): about 50%; time able to read text or music at a time ([1]; 30 mg four times a day): no more than 30 minutes; adverse effects ([1]; nimodipine 30 mg four times a day, memantine 10 mg twice a day): dizziness, lightheadedness, and palpitations
